Results as given in ChEMBL document CHEMBL1201862, “PubChem BioAssay data set” (2004).
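Five concentrations, 48 hours, 96-well plates. Here, GI50 denotes the concentration required for 50% inhibition of growth.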 Activity calls are given as the source filed them. No stated cut-off is given here; in the data, active = GI50 up to about 1.1 µM and inactive = higher.

Columns and labels:
Test in all cases: DTP human tumour cell line panel, 48 h
[1] = test system: SNB-75
[2] = test system: COLO 205
[3] = test system: MOLT-4
[4] = test system: SF-539
[5] = test system: ACHN
[6] = test system: UACC-62
[7] = test system: 786-0
[8] = test system: SN12C
[9] = test system: OVCAR-4
[10] = test system: HCC 2998
[11] = test system: RXF 393
[12] = test system: OVCAR-5
[13] = test system: BT-549
[14] = test system: NCI-H23
[15] = test system: NCI-H460
[16] = test system: KM12
[17] = test system: UO-31
[18] = test system: SNB-19
[19] = test system: MDA-MB-231
[20] = test system: MDA-N

Measured: GI50

COc1ccccc1C(=O)c1ccc2ccccc2c1
inactive: [1] 38.2 µM | [2] 20.4 µM | [3] 4.34 µM | [4] 5.74 µM | [5] 41.2 µM | [6] 7.48 µM | [7] 30.1 µM | [8] 28.1 µM | [9] 36 µM | [10] 51.8 µM | [11] 22.5 µM | [12] 64.6 µM | [13] 16.1 µM | [14] 40 µM | [15] 15.2 µM | [16] 4.34 µM | [17] 20.6 µM | [18] 19.5 µM | [19] 35.8 µM

COc1cc2nc(-c3cccs3)nc(N3CCN(c4ccccc4C(F)(F)F)CC3)c2cc1OC
inactive: [1] > 100 µM | [2] > 100 µM | [3] 16.7 µM | [4] 55.6 µM | [5] > 100 µM | [6] 76.7 µM | [7] > 100 µM | [8] > 100 µM | [9] > 100 µM | [10] > 100 µM | [12] > 100 µM | [13] > 100 µM | [14] > 100 µM | [15] > 100 µM | [16] 75.5 µM | [17] > 100 µM | [18] > 100 µM | [19] > 100 µM

N#Cc1c(N2CCOCC2)[nH]c(=O)c(C(c2c(Cl)cccc2Cl)c2c(O)c(C#N)c(N3CCOCC3)[nH]c2=O)c1O
inactive: [2] 13.8 µM | [3] 16.1 µM | [4] 19.1 µM | [5] 16.1 µM | [6] 16.6 µM | [7] 32 µM | [8] 20.1 µM | [9] 17.7 µM | [10] 12.5 µM | [11] 14.1 µM | [12] 14 µM | [13] 17.6 µM | [14] 16.2 µM | [15] > 100 µM | [16] 16.1 µM | [17] 18.2 µM | [18] 16.1 µM | [19] 16.6 µM

CC(=O)N(C)c1cc(NCc2ccccc2)ccc1OCc1ccccc1
inactive: [1] 22.2 µM | [2] 22.3 µM | [3] 25.8 µM | [4] 17.3 µM | [5] 17.3 µM | [6] 16.4 µM | [7] 27.9 µM | [8] 17.5 µM | [9] 18.7 µM | [10] 18.8 µM | [11] 14.8 µM | [12] 19.3 µM | [13] 20.6 µM | [14] 24.4 µM | [15] 17.9 µM | [16] 21.3 µM | [17] 14.8 µM | [18] 17.9 µM | [19] 15.8 µM

Nc1c(F)c(F)c2c(c1F)N(CCCCCl)c1ccccc1S2
inactive: [1] 74.6 µM | [2] > 100 µM | [3] > 100 µM | [4] > 100 µM | [5] > 100 µM | [6] > 100 µM | [7] > 100 µM | [8] > 100 µM | [9] > 100 µM | [10] > 100 µM | [11] > 100 µM | [12] > 100 µM | [13] > 100 µM | [14] > 100 µM | [15] > 100 µM | [16] > 100 µM | [17] > 100 µM | [18] > 100 µM | [19] > 100 µM

COc1cc(C2c3cccc4cccc(c34)C3CCC(=O)N32)cc(O)c1O (stereo unspecified)
inactive: [1] > 50 µM | [2] > 50 µM | [3] 12.7 µM | [4] 20.9 µM | [5] > 50 µM | [6] 25.6 µM | [7] 44.2 µM | [8] 41 µM | [9] 12.7 µM | [11] > 50 µM | [12] > 50 µM | [20] 22.3 µM | [13] > 50 µM | [14] 27.1 µM | [15] 36.5 µM | [16] > 50 µM | [17] 28.8 µM | [18] > 50 µM
